One molecule from patent US8624027B2, “Combination therapy for treating cancer and diagnostic assays for use therein” (AbbVie Inc., priority 2005, dated 2014) can be followed below.

In general, EC50 refers to the concentration at which the effect is half-maximal.

One experiment has as its system mantle cell lymphoma. The experiment in a line: Oral efficacy of EXAMPLE 1 in combination therapy, antitumorigenesis on mantle cell lymphoma. The class given is in vivo.
A further experiment relates to HCT116 cells. In words: Caspase-3 activity in polyploid cells (Caspase-GLO 3/7). Type of experiment: cell-based, human. As to conditions: cells made polyploid with 200 nM AZD1152 (with or without washout); 1 μM ABT-263 for 4 hours; not in diploid cells. On the procedure:
Cell viability was determined 72 hours post-transfection. The red curve represents a synergistic combination. […] HCT116 cells (FIG. 10C-FIG. 10F) were treated for 24 hours with DMSO or 200 nM AZD1152. AZD1152 was then either left in the culture medium (AZD 1152) or washed out by replacing the medium with drug-free growth medium (AZD 1152 washout).
Caspase-3 activity was determined using the Caspase-GLO 3/7 Assay (Promega) in tandem with the CellTiter-GLO viability assay (Promega). Parallel experiments were performed, where in one experiment Caspase-3/7 activity was measured and in the other, cell viability was determined. As Caspase-3/7 activity on a per cell basis reflects both the specific activity of the Caspase-3 enzyme and the number of viable cells, the data are expressed as Caspase-3/7 activity divided by cell viability.

The test system of experiment [1] is NCI-H146 human small cell lung carcinoma cells. In words: Cellular efficacy in human tumor cell line (MTS viability assay). As to conditions: NCI-H146; 10% human serum, 48 hours; Table 1; read-out: NCI-H146 Cellular Efficacy EC50. Type of experiment: cell-based. A digest of the protocol: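 Cells plated at 50,000/well in medium with 10% human serum in place of FBS. Treated with 2-fold serial dilutions from 10 μM to 0.020 μM, in duplicate, at least 3 separate runs. Viable cells measured by MTS after 48 h of compound exposure.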
On the technique in general: Tetrazolium dyes change colour on reduction, which living cells bring about.

Molecules are shown by their SMILES.

Turning to `CC1(C)CCC(c2ccc(Cl)cc2)=C(CN2CCN(c3ccc(C(=O)NS(=O)(=O)c4ccc(N[C@H](CCN5CCOCC5)CSc5ccccc5)c(S(=O)(=O)C(F)(F)F)c4)cc3)CC2)C1` [Example 1, N-(4-(4-((2-(4-chlorophenyl)-5,5-dimethyl-1-cyclohex-1-en-1-yl)methyl)piperazin-1-yl)benzoyl)-4-(((1R)-3-(morpholin-4-yl)-1-((phenylsulfanyl)methyl)propyl)amino)-3-((trifluoromethyl)sulfonyl)benzenesulfonamide], in the experiment with mantle cell lymphoma (EXAMPLE 1 orally with rituximab with CHOP, VELCADE), the “efficacy of cytotoxic agents during combination therapy” value is recorded as “synergistically enhanced efficacy”. Also, the complete tumor regression stood at 10% in the experiment with mantle cell lymphoma (combination of EXAMPLE 1 and bortexomib); 90% in the experiment with mantle cell lymphoma (combination of EXAMPLE 1 and rituximab with CHOP). Besides, the “Caspase-3 activity in polyploid cells” value with HCT116 cells is listed as “induced Caspase-3 activity”. The concentration for a half-maximal effect (EC50) in experiment [1] was determined as 89.1 nM.
